The numbers were not newly measured in article PMC10325900, “A conserved motif in the disordered linker of human MLH1 is vital for DNA mismatch repair and its function is diminished by a cancer family mutation” (Nucleic Acids Research, 2023), which cites them from elsewhere.

This series deals with yMLH1-yPMS1. Set-up: method as in Torres et al. [100]. The conditions noted are these: 25mer yeast peptide, molar ratio 0-250-500-1000 to yMLH1-PMS1, MLH1-PMS2 35 nM, 1 mM Mn2+; ref Torres et al. [100]; cited from earlier work.

For the sequence KAKRQENKL VRI D ASQAKITSFLSS [25mer], the “effect of peptide on endonuclease activation of yMLH1-yPMS1” value is listed as “inhibiting endonuclease activit y”.
